Test results as given in patent US20220226270A1, “VERY-LONG-CHAIN POLYUNSATURATED FATTY ACIDS, ELOVANOID HYDROXYLATED DERIVATIVES, AND METHODS OF USE” (Board of Supervisors of Louisiana State University and …, priority 2019, published 2022).

Tests used:
[1] = tested on: hippocampal mixed neuronal culture; assay: Oxygen glucose deprivation (OGD) in hippocampal mixed neuronal culture; assay type: cell-based, rat; conditions: 500 nM, DIV 12, 90 min OGD (FIG. 18G)
Excerpt: (§1) Primary cultures of cortical neurons: Primary cultures of cortical and hippocampal neurons were harvested from 18-day-old embryos (E18) taken from timed-pregnant, two-month-old Sprague-Dawley (SD) rats (Charles River Lab., Wilmington, Mass.). Briefly, timed-pregnant SD rats were euthanized and embryos were collected in sterile conditions. Embryonic brains were dissected out by forceps on ice and placed in a petri dish containing ice-cold Hank's Balanced Salt Solution (HBSS) (GIBCO). Meninges were removed under a dissecting microscope and cortical tissues were chopped into small pieces with micro-spring scissors. These tissues were transferred to 15 ml tubes containing trypsin-EDTA (0.025% in HBSS) and DNase I. The tubes were incubated in 37° C. chamber for 15 mins and were agitated every 5 mins. After stopping the trypsinization with 5 ml 10% FBS, these tissues were triturated 15 times with a fire polished Pasteur pipet. Cell clumps were left to settle for 2 mins and the supernatant was transferred to a 15 ml Eppendorf tube. The supernatant was filtered through a 70 μm pore-sized filter (Corning cell strainer) and centrifuged for 5 mins at 1000 rpm. The cells were then resuspended in Neurobasal medium (GIBCO) containing 2% B27 (GIBCO) and 2% N2 (GIBCO) supplements, along with 0.5 mM glutamine, 50 U/ml penicillin/streptomycin.
(§2) Oxygen glucose deprivation (OGD), NMDA excitotoxicity or uncompensated oxidative stress (UOS) exposure: An in vitro oxygen glucose deprivation (OGD) model was established. Primary cortical neurons were cultured from SD rat embryos. On day in vitro (DIV) 12, cells were washed with phosphate-buffered saline and incubated in glucose-free Neurobasal medium (GIBCO) for 30 mins. The cells were then placed in a modular incubator chamber and incubated in an anaerobic chamber (95% N2, 5% CO2) at 37° C. for 90 mins for OGD.
After 90 mins of OGD exposure, cells were returned to the original medium (Neurobasal medium (GIBCO) containing 2% B27 (GIBCO) and 2% N2 (GIBCO) supplements, along with 0.5 mM glutamine, 50 U/ml penicillin/streptomycin) and placed in a normoxic chamber (37° C., 5% CO2) for 2 h. Then the medium was changed with medium containing either ELV-N32 or ELV-N34 [500 nM] and maintained in a normoxic chamber (37° C., 5% CO2) for 12 h, after which cells were sampled and assayed for cell viability using different methods as previously described (25-28). […]
One 4×4 tile mosaic was acquired from the center of each well using a Zeiss 510 Meta laser confocal microscope and LSM 510 Meta software. […] An Otsu auto threshold was applied to each image of Hoechst-stained nuclei, and the area of each detected object was recorded. […]

[2] = tested on: cerebral cortical mixed neuronal cells; assay: NMDA excitotoxicity in cerebral cortical mixed neuronal cultures; assay type: cell-based, rat; conditions: for synergy with NPD1 in neuroprotection against NMDA excitotoxicity: ELV 200 nM + NPD1 100 nM, NMDA 100 μM, 12 h (FIG. 16A); for NMDA dose-dependent increase of apoptotic nuclei: NMDA 25, 50 or 100 μM; for neuroprotection on addition of MK801 and NPD1 together, versus ELV alone: NMDA excitotoxicity; for frequency distribution of pyknotic vs non-pyknotic nuclei (nuclear size peak) after NMDA: 500 nM, NMDA 100 μM 12 h, DIV 12, Hoechst
Excerpt: as §1
(§3) Cells were counted using a Neubauer hemocytometer. 1×10^6 cells were seeded on poly-D-lysine-coated 12 well cell culture dish (CORNING) and cultured in incubator (37° C., 5% CO2). Culture medium was first replaced after 24 h, then half of the medium was replaced with fresh medium every three days. As a result, approximately, 90% purity of neurons was obtained as determined by class-III-β tubulin, GFAP and Hoechst 33258 staining. Cells were maintained in culture for about 2 weeks until they were exposed to uncompensated oxidative stress, OGD, or NMDA excitotoxicity.
(§4) After 90 mins of OGD exposure, cells were returned to the original medium (Neurobasal medium (GIBCO) containing 2% B27 (GIBCO) and 2% N2 (GIBCO) supplements, along with 0.5 mM glutamine, 50 U/ml penicillin/streptomycin) and placed in a normoxic chamber (37° C., 5% CO2) for 2 h. Then the medium was changed with medium containing either ELV-N32 or ELV-N34 [500 nM] and maintained in a normoxic chamber (37° C., 5% CO2) for 12 h, after which cells were sampled and assayed for cell viability using different methods as previously described (25-28). Cerebral cortical mixed neuronal cells or hippocampal cells in culture were exposed to either NMDA or uncompensated oxidative stress (UOS) for 12 h by addition of either NMDA (25 μM, 50 μM, or 100 μM) concentration or by the addition of TNFα (10 ng/mL) and H2O2 (50 μM, 100 μM, or 200 μM). Cell viability and neuroprotection in the presence of ELV-N32, ELV-N34, 32:6, or 34:6 were assayed after 12 h.
(§5) Hoechst staining and unbiased image analysis: Cells were washed with 1× Dulbecco's Phosphate Buffered Saline (DPBS) containing no calcium or magnesium (GIBCO) and fixed for 10 mins using ice-cold 4% paraformaldehyde (PFA) followed by 15 mins incubation in 100% methanol. Cells were washed with 1× Phosphate Buffered Saline (PBS) pH 7.4 (GIBCO) and incubated in PBS containing 20 μM Hoechst 33258 (Molecular Probes) for 20 mins. Cells were then washed 3 times with 1× PBS and stored in 1× PBS at 4° C. until they were imaged for microscopy.
(§6) One 4×4 tile mosaic was acquired from the center of each well using a Zeiss 510 Meta laser confocal microscope and LSM 510 Meta software. Images were imported into image analysis software ImageJ (National Institutes of Health, Bethesda, Md.) and batch processed using custom macros. An Otsu auto threshold was applied to each image of Hoechst-stained nuclei, and the area of each detected object was recorded. Objects with areas <10 μm^2 were excluded from analysis. To estimate percentage non-pyknotic nuclei, a size cutoff value was chosen above which objects were assumed to be non-pyknotic. […]

ARPE-19 cells = assay: UOS-induced apoptosis in ARPE-19 cells (Hoechst-positive pyknotic cells); assay type: cell-based, human; conditions: for protection against UOS: free fatty acids (FIGS. 7A and 7B); for UOS-induced apoptosis: 200 nM (FIG. 10C); for UOS-induced apoptotic cell death, concentration-dependent: 50-500 nM (FIG. 10G); for concentration of highest inhibition of UOS-induced apoptosis / concentration of lowest inhibition of UOS-induced apoptosis: tested 50-500 nM
Procedure: ARPE19 cells at 75-80% confluence (72 h growth in DMEM/F12+10% FBS) in 6-well plates were serum-starved for 8 h before exposure. The serum-starved cells were treated with TNF-α (Sigma-Aldrich, St. Louis, Mo.) (10 ng/ml) and H2O2 (600 μM) to induce oxidative stress and challenged with increasing concentrations (50-500 nM) of VLC-PUFA (C32:6n3 and C34:6n3) simultaneously with oxidative stress for 16 h (apoptosis) and 6 h (Western-blot) before detection of apoptosis and harvesting for protein analysis. In some experiments, DHA at a concentration of 100 nM and 15-LOX-1 inhibitor PD146176 at a concentration of 1 μM was added to treat the RPE cells under stress. Cell extracts were made and protein concentrations adjusted by Bio-Rad (Hercules, Calif.) protein reagent and used for Western blot analysis.
To assess cell death, hRPE and ARPE-19 cells were fixed with methanol for 15 mins, washed with 1× PBS then loaded with 2 μM Hoechst dissolved in a Locke's solution (Promega) and incubated for another 15 mins before imaging. Cells were then viewed by using a Zeiss LSM 510 confocal microscope under UV fluorescence. Images were recorded and cell apoptosis was assessed by using an automated unbiased method.

[3] = tested on: cerebral cortical mixed neuronal cells; assay: Oxygen glucose deprivation (OGD) in cerebral cortical mixed neuronal cultures; assay type: cell-based, rat; conditions: for neuroprotection after OGD by VLC-PUFA precursor: 250 nM, added after OGD exposure; for neuroprotection compared to OGD alone (Hoechst-positive nuclei, calcein-positive cell counting or MTT): 90 mins OGD, added after 2 h of reoxygenation at 200 nM, 500 nM or 1 μM, cortical mixed or hippocampal neurons; for frequency distribution of pyknotic vs non-pyknotic nuclei (nuclear size peak) after OGD: 500 nM, DIV 12, 90 min OGD, Hoechst
Excerpt: as §1, §3, §2, §4
as §5, with “microscopy. […]” for “microscopy.”

[4] = tested on: cerebral cortical mixed neuronal cells; assay: Uncompensated oxidative stress (TNFα plus H2O2) in cerebral cortical mixed neuronal cultures; assay type: cell-based, rat; conditions: for UOS dose-dependent increase of apoptotic nuclei: 200 nM (FIG. 16B); for neuroprotection against uncompensated oxidative stress: 200 nM, 12 h TNFα 10 ng/mL and H2O2 (50, 100 or 200 μM)
Excerpt: as §1, §3, §4, §5, §6

## CC/C=C\C/C=C\C/C=C\C/C=C\C/C=C\C/C=C\CCCCCCCCCCCCC(=O)O [32:6n3, (14Z,17Z,20Z,23Z,26Z,29Z)-dotriaconta-14,17,20,23,26,29-hexaenoic acid]
[1]
  neuroprotection after OGD (Hoechst positive nuclei counting): showed neuroprotection
[2]; 250 nM (FIG. 17 graph D)
  NMDA excitotoxicity (precursor, 250 nM): attenuate NMDA excitotoxicity
ARPE-19 cells
  protection against UOS: elicit protection
[3]
  neuroprotection after OGD by VLC-PUFA precursor: provide neuroprotection

## CC/C=C\C/C=C\C/C=C\C/C=C\C/C=C\C/C=C\CCCCCCCCCCCCCCC(=O)O [34:6n3, (16Z,19Z,22Z,25Z,28Z,31Z)-tetratriaconta-16,19,22,25,28,31-hexaenoic acid]
[1]
  neuroprotection after OGD (Hoechst positive nuclei counting): showed neuroprotection
[2]; 500 nM (FIG. 16H)
  NMDA receptor-mediated excitotoxicity (precursor, 500 nM): attenuates
ARPE-19 cells
  protection against UOS: elicit protection
[3]; listed as 34:6
  neuroprotection after OGD by VLC-PUFA precursor: elicit neuroprotection

## CC/C=C\C[C@H](O)\C=C/C=C/C=C/[C@H](O)C/C=C\C/C=C\CCCCCCCCCCCCC(=O)OC [ELV-N32-Me, methyl (14Z,17Z,20R,21E,23E,25Z,27S,29Z)-20,27-dihydroxydotriaconta-14,17,21,23,25,29-hexaenoate]
[4]
  UOS dose-dependent increase of apoptotic nuclei: counteracted
  neuroprotection against uncompensated oxidative stress: evoked neuroprotection
[2]
  synergy with NPD1 in neuroprotection against NMDA excitotoxicity: showed synergy
  NMDA dose-dependent increase of apoptotic nuclei: compensated for
  neuroprotection on addition of MK801 and NPD1 together, versus ELV alone: improved the neuroprotection
[2]; versus ELV-N32-Na and NPD1 together
  relative potency of combination with NPD1: more potent
[3]
  neuroprotection compared to OGD alone (Hoechst-positive nuclei, calcein-positive cell counting or MTT): elicited neuroprotection

## CC/C=C\C[C@H](O)\C=C/C=C/C=C/[C@H](O)C/C=C\C/C=C\CCCCCCCCCCCCC(=O)[O-].[Na+] [ELV-N32-Na, sodium (14Z,17Z,20R,21E,23E,25Z,27S,29Z)-20,27-dihydroxydotriaconta-14,17,21,23,25,29-hexaenoate]
[1]
  neuroprotection after OGD (Hoechst positive nuclei counting): neuroprotection elicited
[4]
  UOS dose-dependent increase of apoptotic nuclei: counteracted
  neuroprotection against uncompensated oxidative stress: evoked neuroprotection
[4]; listed as ELV-N32 Na
  neuroprotection against uncompensated oxidative stress: neuroprotection elicited
[2]
  frequency distribution of pyknotic vs non-pyknotic nuclei (nuclear size peak) after NMDA: positive rightward shift
  synergy with NPD1 in neuroprotection against NMDA excitotoxicity: showed synergy
  NMDA dose-dependent increase of apoptotic nuclei: compensated for
  neuroprotection on addition of MK801 and NPD1 together, versus ELV alone: improved the neuroprotection
ARPE-19 cells
  UOS-induced apoptosis: attenuation of apoptosis
  UOS-induced apoptotic cell death, concentration-dependent: attenuated
  concentration of highest inhibition of UOS-induced apoptosis: 500 nM
  concentration of lowest inhibition of UOS-induced apoptosis: 50 nM
[3]
  frequency distribution of pyknotic vs non-pyknotic nuclei (nuclear size peak) after OGD: positive rightward shift
  neuroprotection compared to OGD alone (Hoechst-positive nuclei, calcein-positive cell counting or MTT): elicited neuroprotection

## CC/C=C\C[C@H](O)\C=C/C=C/C=C/[C@H](O)C/C=C\C/C=C\CCCCCCCCCCCCCCC(=O)OC [ELV-N34-Me, methyl (16Z,19Z,22R,23E,25E,27Z,29S,31Z)-22,29-dihydroxytetratriaconta-16,19,23,25,27,31-hexaenoate]
[2]
  frequency distribution of pyknotic vs non-pyknotic nuclei (nuclear size peak) after NMDA: positive rightward shift
ARPE-19 cells
  UOS-induced apoptotic cell death, concentration-dependent: attenuated
  concentration of highest inhibition of UOS-induced apoptosis: 500 nM
  concentration of lowest inhibition of UOS-induced apoptosis: 50 nM
[3]
  frequency distribution of pyknotic vs non-pyknotic nuclei (nuclear size peak) after OGD: positive rightward shift
  neuroprotection compared to OGD alone (Hoechst-positive nuclei, calcein-positive cell counting or MTT): elicited neuroprotection

## CC/C=C\C[C@H](O)\C=C/C=C/C=C/[C@H](O)C/C=C\C/C=C\CCCCCCCCCCCCCCC(=O)[O-].[Na+] [ELV-N34-Na, sodium (16Z,19Z,22R,23E,25E,27Z,29S,31Z)-22,29-dihydroxytetratriaconta-16,19,23,25,27,31-hexaenoate]
[1]
  neuroprotection after OGD (Hoechst positive nuclei counting): neuroprotection elicited
[4]
  neuroprotection against uncompensated oxidative stress: neuroprotection elicited
ARPE-19 cells
  UOS-induced apoptosis: attenuation of apoptosis
[3]
  neuroprotection compared to OGD alone (Hoechst-positive nuclei, calcein-positive cell counting or MTT): elicited neuroprotection
